Data from ChEMBL document CHEMBL1909294, “Translating clinical findings into knowledge in drug safety evaluation--drug induced liver injury prediction system (DILIps)” (PLoS Comput Biol, 2011).

What was measured:
Hepatotoxicity [1] = system: Hepatotoxicity;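 for HepSE cholecystitis: Cholecystitis-related hepatic side effect score drawn from the DILIps (drug-induced liver injury prediction) training data set; call rule not given here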;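 for HepSE cholelithiasis: hepatic side effect score for cholelithiasis, drawn from the DILIps training data for predicting drug-induced liver injury; call rule not given here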; for HepSE hepatic failure: call rule not given here;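 for HepSE hepatic necrosis: score of hepatic side effects for hepatic necrosis, drawn from the training data of DILIps, a prediction system for drug-induced liver injury; call rule not given here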;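 for HepSE hepatomegaly: hepatic side effect score for hepatomegaly, taken from the training set of the DILIps drug-induced liver injury prediction system; call rule not given here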;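 for HepSE jaundice: Jaundice-related hepatic side-effect score drawn from the training data of the DILIps (drug-induced liver injury prediction system); call rule not given here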; for HepSE liver disease: call rule not given here
Hepatotoxicity [2] = system: Hepatotoxicity; remark: listed apart in the source;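 for HepSE cholecystitis: Cholecystitis-related hepatic side effect score drawn from the DILIps (drug-induced liver injury prediction) training data set; call rule not given here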;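 for HepSE cholelithiasis: hepatic side effect score for cholelithiasis, drawn from the DILIps training data for predicting drug-induced liver injury; call rule not given here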; for HepSE hepatic failure: call rule not given here;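 for HepSE hepatic necrosis: score of hepatic side effects for hepatic necrosis, drawn from the training data of DILIps, a prediction system for drug-induced liver injury; call rule not given here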;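 for HepSE hepatomegaly: hepatic side effect score for hepatomegaly, taken from the training set of the DILIps drug-induced liver injury prediction system; call rule not given here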;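 for HepSE jaundice: Jaundice-related hepatic side-effect score drawn from the training data of the DILIps (drug-induced liver injury prediction system); call rule not given here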
Hepatotoxicity [3] = system: Hepatotoxicity; remark: listed apart in the source;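 for HepSE cholecystitis: Cholecystitis-related hepatic side effect score drawn from the DILIps (drug-induced liver injury prediction) training data set; call rule not given here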;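 for HepSE cholelithiasis: hepatic side effect score for cholelithiasis, drawn from the DILIps training data for predicting drug-induced liver injury; call rule not given here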; for HepSE hepatic failure: call rule not given here;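 for HepSE hepatic necrosis: score of hepatic side effects for hepatic necrosis, drawn from the training data of DILIps, a prediction system for drug-induced liver injury; call rule not given here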;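 for HepSE hepatomegaly: hepatic side effect score for hepatomegaly, taken from the training set of the DILIps drug-induced liver injury prediction system; call rule not given here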;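 for HepSE jaundice: Jaundice-related hepatic side-effect score drawn from the training data of the DILIps (drug-induced liver injury prediction system); call rule not given here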
Hepatotoxicity [4] = system: Hepatotoxicity; remark: listed apart in the source;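 for HepSE cholecystitis: Cholecystitis-related hepatic side effect score drawn from the DILIps (drug-induced liver injury prediction) training data set; call rule not given here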;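 for HepSE cholelithiasis: hepatic side effect score for cholelithiasis, drawn from the DILIps training data for predicting drug-induced liver injury; call rule not given here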; for HepSE hepatic failure: call rule not given here;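 for HepSE hepatic necrosis: score of hepatic side effects for hepatic necrosis, drawn from the training data of DILIps, a prediction system for drug-induced liver injury; call rule not given here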;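 for HepSE hepatomegaly: hepatic side effect score for hepatomegaly, taken from the training set of the DILIps drug-induced liver injury prediction system; call rule not given here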;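 for HepSE jaundice: Jaundice-related hepatic side-effect score drawn from the training data of the DILIps (drug-induced liver injury prediction system); call rule not given here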
Hepatotoxicity [5] = system: Hepatotoxicity; remark: listed apart in the source; for HepSE hepatic failure: call rule not given here
Hepatotoxicity [6] = system: Hepatotoxicity; remark: listed apart in the source; for HepSE hepatic failure: call rule not given here
Hepatotoxicity [7] = system: Hepatotoxicity; remark: listed apart in the source
Hepatotoxicity [8] = system: Hepatotoxicity; remark: listed apart in the source
Hepatotoxicity [9] = system: Hepatotoxicity; remark: listed apart in the source
Hepatotoxicity [10] = system: Hepatotoxicity; remark: listed apart in the source
Hepatotoxicity [11] = system: Hepatotoxicity; remark: listed apart in the source
Hepatotoxicity [12] = system: Hepatotoxicity; remark: listed apart in the source
Hepatotoxicity [13] = system: Hepatotoxicity; remark: listed apart in the source
Hepatotoxicity [14] = system: Hepatotoxicity; remark: listed apart in the source

CCN(CC)CCNC(=O)c1c(C)[nH]c(/C=C2\C(=O)Nc3ccc(F)cc32)c1C [SUNITINIB]
HepSE_cholecystitis (Hepatotoxicity [1]): 0
HepSE_hepatic necrosis (Hepatotoxicity [2]): 0
HepSE_jaundice (Hepatotoxicity [3]): 1
HepSE_hepatic failure (Hepatotoxicity [4]): 1
HepSE_hepatomegaly (Hepatotoxicity [5]): 0
HepSE_hepatitis (Hepatotoxicity [6]): 0
HepSE_cholelithiasis (Hepatotoxicity [7]): 0
HepSE_liver disease (Hepatotoxicity [8]): 0
HepSE_Combined Scores (Hepatotoxicity [9]): 2
HepSE_cirrhosis (Hepatotoxicity [10]): 0
HepSE_liver function tests abnormal (Hepatotoxicity [11]): 0
HepSE_liver fatty (Hepatotoxicity [12]): 0
HepSE_elevated liver function tests (Hepatotoxicity [13]): 0
HepSE_bilirubinemia (Hepatotoxicity [14]): 0

CC(C(=O)O)c1ccc(C(=O)c2cccs2)cc1 (stereo not drawn) [SUPROFEN]
HepSE_cholecystitis (Hepatotoxicity [1]): 0
HepSE_hepatic necrosis (Hepatotoxicity [2]): 0
HepSE_jaundice (Hepatotoxicity [3]): 0
HepSE_hepatic failure (Hepatotoxicity [4]): 0
HepSE_hepatomegaly (Hepatotoxicity [5]): 0
HepSE_hepatitis (Hepatotoxicity [6]): 0
HepSE_cholelithiasis (Hepatotoxicity [7]): 0
HepSE_liver disease (Hepatotoxicity [8]): 0
HepSE_Combined Scores (Hepatotoxicity [9]): 0
HepSE_cirrhosis (Hepatotoxicity [10]): 0
HepSE_liver function tests abnormal (Hepatotoxicity [11]): 0
HepSE_liver fatty (Hepatotoxicity [12]): 0
HepSE_elevated liver function tests (Hepatotoxicity [13]): 0
HepSE_bilirubinemia (Hepatotoxicity [14]): 0

C[N+](C)(C)CCOC(=O)CCC(=O)OCC[N+](C)(C)C [SUXAMETHONIUM]
HepSE_cholecystitis (Hepatotoxicity [1]): 0
HepSE_hepatic necrosis (Hepatotoxicity [2]): 0
HepSE_jaundice (Hepatotoxicity [3]): 0
HepSE_hepatic failure (Hepatotoxicity [4]): 0
HepSE_hepatomegaly (Hepatotoxicity [5]): 0
HepSE_hepatitis (Hepatotoxicity [6]): 0
HepSE_cholelithiasis (Hepatotoxicity [7]): 0
HepSE_liver disease (Hepatotoxicity [8]): 0
HepSE_Combined Scores (Hepatotoxicity [9]): 0
HepSE_cirrhosis (Hepatotoxicity [10]): 0
HepSE_liver function tests abnormal (Hepatotoxicity [11]): 0
HepSE_liver fatty (Hepatotoxicity [12]): 0
HepSE_elevated liver function tests (Hepatotoxicity [13]): 0
HepSE_bilirubinemia (Hepatotoxicity [14]): 0

Nc1c2c(nc3ccccc13)CCCC2 [TACRINE]
HepSE_cholecystitis (Hepatotoxicity [1]; Liver): 1
HepSE_hepatic necrosis (Hepatotoxicity [2]; Liver): 0
HepSE_jaundice (Hepatotoxicity [3]; Liver): 0
HepSE_hepatic failure (Hepatotoxicity [4]; Liver): 0
HepSE_hepatomegaly (Hepatotoxicity [5]; Liver): 0
HepSE_hepatitis (Hepatotoxicity [6]; Liver): 0
HepSE_cholelithiasis (Hepatotoxicity [7]; Liver): 1
HepSE_liver disease (Hepatotoxicity [8]; Liver): 0
HepSE_Combined Scores (Hepatotoxicity [9]; Liver): 2
HepSE_cirrhosis (Hepatotoxicity [10]; Liver): 0
HepSE_liver function tests abnormal (Hepatotoxicity [11]; Liver): 0
HepSE_liver fatty (Hepatotoxicity [12]; Liver): 0
HepSE_elevated liver function tests (Hepatotoxicity [13]; Liver): 0
HepSE_bilirubinemia (Hepatotoxicity [14]; Liver): 0

C=CC[C@@H]1/C=C(\C)C[C@H](C)C[C@H](OC)[C@H]2O[C@@](O)(C(=O)C(=O)N3CCCC[C@H]3C(=O)O[C@H](/C(C)=C/[C@@H]3CC[C@@H](O)[C@H](OC)C3)[C@H](C)[C@@H](O)CC1=O)[C@H](C)C[C@@H]2OC [TACROLIMUS ANHYDROUS]
HepSE_cholecystitis (Hepatotoxicity [1]): 0
HepSE_hepatic necrosis (Hepatotoxicity [2]): 1
HepSE_jaundice (Hepatotoxicity [3]): 1
HepSE_hepatic failure (Hepatotoxicity [4]): 0
HepSE_hepatomegaly (Hepatotoxicity [5]): 0
HepSE_hepatitis (Hepatotoxicity [6]): 1
HepSE_cholelithiasis (Hepatotoxicity [7]): 0
HepSE_liver disease (Hepatotoxicity [8]): 1
HepSE_Combined Scores (Hepatotoxicity [9]): 7
HepSE_cirrhosis (Hepatotoxicity [10]): 0
HepSE_liver function tests abnormal (Hepatotoxicity [11]): 1
HepSE_liver fatty (Hepatotoxicity [12]): 1
HepSE_elevated liver function tests (Hepatotoxicity [13]): 0
HepSE_bilirubinemia (Hepatotoxicity [14]): 1

CCOc1ccccc1OCCN[C@H](C)Cc1ccc(OC)c(S(N)(=O)=O)c1 [TAMSULOSIN]
HepSE_cholecystitis (Hepatotoxicity [1]): 0
HepSE_hepatic necrosis (Hepatotoxicity [2]): 0
HepSE_jaundice (Hepatotoxicity [3]): 0
HepSE_hepatic failure (Hepatotoxicity [4]): 0
HepSE_hepatomegaly (Hepatotoxicity [5]): 0
HepSE_hepatitis (Hepatotoxicity [6]): 0
HepSE_cholelithiasis (Hepatotoxicity [7]): 0
HepSE_liver disease (Hepatotoxicity [8]): 0
HepSE_Combined Scores (Hepatotoxicity [9]): 0
HepSE_cirrhosis (Hepatotoxicity [10]): 0
HepSE_liver function tests abnormal (Hepatotoxicity [11]): 0
HepSE_liver fatty (Hepatotoxicity [12]): 0
HepSE_elevated liver function tests (Hepatotoxicity [13]): 0
HepSE_bilirubinemia (Hepatotoxicity [14]): 0

CCOC(=O)c1ccc(C#Cc2ccc3c(c2)C(C)(C)CCS3)nc1 [TAZAROTENE]
HepSE_cholecystitis (Hepatotoxicity [1]): 0
HepSE_hepatic necrosis (Hepatotoxicity [2]): 0
HepSE_jaundice (Hepatotoxicity [3]): 0
HepSE_hepatic failure (Hepatotoxicity [4]): 0
HepSE_hepatomegaly (Hepatotoxicity [5]): 0
HepSE_hepatitis (Hepatotoxicity [6]): 0
HepSE_cholelithiasis (Hepatotoxicity [7]): 0
HepSE_liver disease (Hepatotoxicity [8]): 0
HepSE_Combined Scores (Hepatotoxicity [9]): 0
HepSE_cirrhosis (Hepatotoxicity [10]): 0
HepSE_liver function tests abnormal (Hepatotoxicity [11]): 0
HepSE_liver fatty (Hepatotoxicity [12]): 0
HepSE_elevated liver function tests (Hepatotoxicity [13]): 0
HepSE_bilirubinemia (Hepatotoxicity [14]): 0

CCCCCNC(=N)N/N=C/c1c[nH]c2ccc(OC)cc12 [TEGASEROD]
HepSE_cholecystitis (Hepatotoxicity [1]): 1
HepSE_hepatic necrosis (Hepatotoxicity [2]): 0
HepSE_jaundice (Hepatotoxicity [3]): 0
HepSE_hepatic failure (Hepatotoxicity [4]): 0
HepSE_hepatomegaly (Hepatotoxicity [5]): 0
HepSE_hepatitis (Hepatotoxicity [6]): 1
HepSE_cholelithiasis (Hepatotoxicity [7]): 1
HepSE_liver disease (Hepatotoxicity [8]): 0
HepSE_Combined Scores (Hepatotoxicity [9]): 4
HepSE_cirrhosis (Hepatotoxicity [10]): 0
HepSE_liver function tests abnormal (Hepatotoxicity [11]): 0
HepSE_liver fatty (Hepatotoxicity [12]): 0
HepSE_elevated liver function tests (Hepatotoxicity [13]): 0
HepSE_bilirubinemia (Hepatotoxicity [14]): 1

CC[C@H]1OC(=O)[C@H](C)C(=O)[C@H](C)[C@@H](O[C@@H]2O[C@H](C)C[C@H](N(C)C)[C@H]2O)[C@](C)(OC)C[C@@H](C)C(=O)[C@H](C)[C@H]2N(CCCCn3cnc(-c4cccnc4)c3)C(=O)O[C@]12C [TELITHROMYCIN]
HepSE_cholecystitis (Hepatotoxicity [1]; Liver): 0
HepSE_hepatic necrosis (Hepatotoxicity [2]; Liver): 1
HepSE_jaundice (Hepatotoxicity [3]; Liver): 1
HepSE_hepatic failure (Hepatotoxicity [4]; Liver): 1
HepSE_hepatomegaly (Hepatotoxicity [5]; Liver): 0
HepSE_hepatitis (Hepatotoxicity [6]; Liver): 1
HepSE_cholelithiasis (Hepatotoxicity [7]; Liver): 0
HepSE_liver disease (Hepatotoxicity [8]; Liver): 0
HepSE_Combined Scores (Hepatotoxicity [9]; Liver): 5
HepSE_cirrhosis (Hepatotoxicity [10]; Liver): 0
HepSE_liver function tests abnormal (Hepatotoxicity [11]; Liver): 1
HepSE_liver fatty (Hepatotoxicity [12]; Liver): 0
HepSE_elevated liver function tests (Hepatotoxicity [13]; Liver): 0
HepSE_bilirubinemia (Hepatotoxicity [14]; Liver): 0

Cn1nnc2c(C(N)=O)ncn2c1=O [TEMOZOLOMIDE]
HepSE_cholecystitis (Hepatotoxicity [1]): 0
HepSE_hepatic necrosis (Hepatotoxicity [2]): 0
HepSE_jaundice (Hepatotoxicity [3]): 0
HepSE_hepatic failure (Hepatotoxicity [4]): 0
HepSE_hepatomegaly (Hepatotoxicity [5]): 0
HepSE_hepatitis (Hepatotoxicity [6]): 0
HepSE_cholelithiasis (Hepatotoxicity [7]): 0
HepSE_liver disease (Hepatotoxicity [8]): 0
HepSE_Combined Scores (Hepatotoxicity [9]): 0
HepSE_cirrhosis (Hepatotoxicity [10]): 0
HepSE_liver function tests abnormal (Hepatotoxicity [11]): 0
HepSE_liver fatty (Hepatotoxicity [12]): 0
HepSE_elevated liver function tests (Hepatotoxicity [13]): 0
HepSE_bilirubinemia (Hepatotoxicity [14]): 0

COc1cc([C@@H]2c3cc4c(cc3[C@@H](O[C@@H]3O[C@@H]5CO[C@@H](c6cccs6)O[C@H]5[C@H](O)[C@H]3O)[C@H]3COC(=O)[C@H]23)OCO4)cc(OC)c1O [TENIPOSIDE]
HepSE_cholecystitis (Hepatotoxicity [1]): 0
HepSE_hepatic necrosis (Hepatotoxicity [2]): 0
HepSE_jaundice (Hepatotoxicity [3]): 0
HepSE_hepatic failure (Hepatotoxicity [4]): 0
HepSE_hepatomegaly (Hepatotoxicity [5]): 0
HepSE_hepatitis (Hepatotoxicity [6]): 0
HepSE_cholelithiasis (Hepatotoxicity [7]): 0
HepSE_liver disease (Hepatotoxicity [8]): 0
HepSE_Combined Scores (Hepatotoxicity [9]): 0
HepSE_cirrhosis (Hepatotoxicity [10]): 0
HepSE_liver function tests abnormal (Hepatotoxicity [11]): 0
HepSE_liver fatty (Hepatotoxicity [12]): 0
HepSE_elevated liver function tests (Hepatotoxicity [13]): 0
HepSE_bilirubinemia (Hepatotoxicity [14]): 0

C[C@H](Cn1cnc2c(N)ncnc21)OCP(=O)(O)O [TENOFOVIR ANHYDROUS]
HepSE_cholecystitis (Hepatotoxicity [1]): 0
HepSE_hepatic necrosis (Hepatotoxicity [2]): 0
HepSE_jaundice (Hepatotoxicity [3]): 0
HepSE_hepatic failure (Hepatotoxicity [4]): 0
HepSE_hepatomegaly (Hepatotoxicity [5]): 0
HepSE_hepatitis (Hepatotoxicity [6]): 1
HepSE_cholelithiasis (Hepatotoxicity [7]): 0
HepSE_liver disease (Hepatotoxicity [8]): 0
HepSE_Combined Scores (Hepatotoxicity [9]): 2
HepSE_cirrhosis (Hepatotoxicity [10]): 0
HepSE_liver function tests abnormal (Hepatotoxicity [11]): 0
HepSE_liver fatty (Hepatotoxicity [12]): 1
HepSE_elevated liver function tests (Hepatotoxicity [13]): 0
HepSE_bilirubinemia (Hepatotoxicity [14]): 0
